Assay results: patent US20020137929A1, “1 - (3-heterocyclylphenyl) isothiourea, -isourea, -guanidine and -amidine herbicidal agents” (Intellectual Property Department, BASF Aktiengesellschaft, priority 1998, published 2002)

What was measured:
CYPIR (Rice Flatsedge) = experiment: Postemergence weed control under flooded paddy conditions; type: in vivo, Cyperus iria; conditions: postemergence weeds, 3-4 weeks after treatment
Method in brief: (§1)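 Flood-water application, about 0.0313–0.500 kg/ha a.i. in aqueous/acetone 50/50 v/v; water depth 1.5–3 cm throughout. Weeds 3–5 cm, rice 1.5–2.5 leaf. Greenhouse; 0–9 visual rating vs control at 3–4 wk.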

[1] = system: IPOHE (Morningglory, Ivyleaf); experiment: Preemergence herbicidal evaluation; type: in vivo, Ipomoea hederacea; conditions: rated 4-5 weeks after treatment
Method in brief: (§2)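 Steps: mix seeds into potting soil; plant atop ~1 inch soil; spray compound in aqueous acetone (~0.0156-0.500 kg/ha equivalent); maintain in greenhouse with watering; rate visually 0-9 versus control at 4-5 weeks.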

CYPSE (Flatsedge) = experiment: Postemergence weed control under flooded paddy conditions; type: in vivo, Cyperus serotinus; conditions: postemergence weeds, 3-4 weeks after treatment
Method in brief: as §1

[2] = system: GLXMAW (Soybean, Williams); experiment: Preemergence herbicidal evaluation; type: in vivo, Glycine max, (L.) Merr. cv Williams; conditions: rated 4-5 weeks after treatment
Method in brief: as §2

[3] = system: CHEAL (Lambsquarters, Common); experiment: Preemergence herbicidal evaluation; type: in vivo, Chenopodium album; conditions: rated 4-5 weeks after treatment
Method in brief: as §2

ABUTH (Velvetleaf) [4] = experiment: Preemergence herbicidal evaluation; type: in vivo, Abutilon theophrasti; conditions: rated 4-5 weeks after treatment
Method in brief: as §2

[5] = system: TRZAWR (Wheat, Winter, cv Riband); experiment: Preemergence herbicidal evaluation; type: in vivo, Triticum aestivum; conditions: rated 4-5 weeks after treatment
Method in brief: as §2

CASOB (Sicklepod) = experiment: Preemergence herbicidal evaluation; type: in vivo, Cassia obtusifolia; conditions: rated 4-5 weeks after treatment
Method in brief: as §2

ECHCG (Barnyardgrass) [6] = experiment: Preemergence herbicidal evaluation; type: in vivo, Echinochloa crus-galli; conditions: rated 4-5 weeks after treatment
Method in brief: as §2

[7] = system: IPOHE (Morningglory, Ivyleaf); experiment: Postemergence herbicidal evaluation; type: in vivo, Ipomoea hederacea
Method in brief: (§3)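 Visual 0-9 injury score (stand, vigor, malformation, size, chlorosis, appearance vs untreated) taken four to five weeks post-spray, averaged across repeat tests. Test plants about two weeks old; foliar spray of acetone/water (1:1) with 0.5% surfactant delivering ~0.0156-0.500 kg active/ha.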

ZEAMX (Corn, Field) [8] = experiment: Preemergence herbicidal evaluation; type: in vivo, Zea mays; conditions: rated 4-5 weeks after treatment
Method in brief: as §2

ZEAMX (Corn, Field) [9] = experiment: Postemergence herbicidal evaluation; type: in vivo, Zea mays
Method in brief: as §3

SETVI (Foxtail, Green) = experiment: Postemergence herbicidal evaluation; type: in vivo, Setaria viridis
Method in brief: as §3

[10] = system: CHEAL (Lambsquarters, Common); experiment: Postemergence herbicidal evaluation; type: in vivo, Chenopodium album
Method in brief: as §3

ECHCG (Barnyardgrass) [11] = experiment: Postemergence herbicidal evaluation; type: in vivo, Echinochloa crus-galli
Method in brief: as §3

ABUTH (Velvetleaf) [12] = experiment: Postemergence herbicidal evaluation; type: in vivo, Abutilon theophrasti
Method in brief: as §3

ORYSAT (Rice, Tebonnet) = experiment: Postemergence herbicidal evaluation; type: in vivo, Oryza sativa, (L.) Tebonnet
Method in brief: as §3

CCOC(=O)CN1C(=O)C(CC(=O)OC)S/C1=N/c1cc(-n2c(=O)cc(C(F)(F)F)n(C)c2=O)c(F)cc1Cl (stereo not shown) [Compound 54, 2-{{2-Chloro-5-[3,6-dihydro-3-methyl-2,6-dioxo-4-(trifluoromethyl)-1(2H)-pyrimidinyl]-4-fluorophenyl}imino}-4-oxo-3,5-thiazolidinediacetic acid, 3-ethyl methyl ester]
Herbicidal rating CYPIR (CYPIR (Rice Flatsedge); rate 0.0313 kg/ha): 0.0
Herbicidal rating CYPIR (CYPIR (Rice Flatsedge); rate 0.0625 kg/ha): 4.0
Herbicidal rating CYPIR (CYPIR (Rice Flatsedge); rate 0.1250 kg/ha): 4.0
Herbicidal rating CYPIR (CYPIR (Rice Flatsedge); rate 0.2500 kg/ha): 4.0
Preemergence herbicidal rating IPOHE ([1]; rate 0.0156 kg/ha): 1.5
Preemergence herbicidal rating IPOHE ([1]; rate 0.0313 kg/ha): 6.0
Preemergence herbicidal rating IPOHE ([1]; rate 0.0625 kg/ha): 9.0
Preemergence herbicidal rating IPOHE ([1]; rate 0.1250 kg/ha): 7.5
Preemergence herbicidal rating IPOHE ([1]; rate 0.2500 kg/ha): 9.0
Preemergence herbicidal rating IPOHE ([1]; rate 0.5000 kg/ha): 9.0
Herbicidal rating CYPSE (CYPSE (Flatsedge); rate 0.0313 kg/ha): 0.0
Herbicidal rating CYPSE (CYPSE (Flatsedge); rate 0.0625 kg/ha): 0.0
Herbicidal rating CYPSE (CYPSE (Flatsedge); rate 0.1250 kg/ha): 0.0
Herbicidal rating CYPSE (CYPSE (Flatsedge); rate 0.2500 kg/ha): 4.0
Preemergence herbicidal rating GLXMAW ([2]; rate 0.0156 kg/ha): 0.0
Preemergence herbicidal rating GLXMAW ([2]; rate 0.0313 kg/ha): 0.5
Preemergence herbicidal rating GLXMAW ([2]; rate 0.0625 kg/ha): 1.5
Preemergence herbicidal rating GLXMAW ([2]; rate 0.1250 kg/ha): 3.0
Preemergence herbicidal rating GLXMAW ([2]; rate 0.2500 kg/ha): 7.5
Preemergence herbicidal rating GLXMAW ([2]; rate 0.5000 kg/ha): 9.0
Preemergence herbicidal rating CHEAL ([3]; rate 0.0156 kg/ha): 4.5
Preemergence herbicidal rating CHEAL ([3]; rate 0.0313 kg/ha): 9.0
Preemergence herbicidal rating CHEAL ([3]; rate 0.0625 kg/ha): 9.0
Preemergence herbicidal rating CHEAL ([3]; rate 0.1250 kg/ha): 9.0
Preemergence herbicidal rating CHEAL ([3]; rate 0.2500 kg/ha): 9.0
Preemergence herbicidal rating CHEAL ([3]; rate 0.5000 kg/ha): 9.0
Preemergence herbicidal rating ABUTH (ABUTH (Velvetleaf) [4]; rate 0.0156 kg/ha): 4.5
Preemergence herbicidal rating ABUTH (ABUTH (Velvetleaf) [4]; rate 0.0313 kg/ha): 7.5
Preemergence herbicidal rating ABUTH (ABUTH (Velvetleaf) [4]; rate 0.0625 kg/ha): 9.0
Preemergence herbicidal rating ABUTH (ABUTH (Velvetleaf) [4]; rate 0.1250 kg/ha): 9.0
Preemergence herbicidal rating ABUTH (ABUTH (Velvetleaf) [4]; rate 0.2500 kg/ha): 9.0
Preemergence herbicidal rating ABUTH (ABUTH (Velvetleaf) [4]; rate 0.5000 kg/ha): 9.0
Preemergence herbicidal rating TRZAWR ([5]; rate 0.0156 kg/ha): 0.0
Preemergence herbicidal rating TRZAWR ([5]; rate 0.0313 kg/ha): 0.0
Preemergence herbicidal rating TRZAWR ([5]; rate 0.0625 kg/ha): 0.0
Preemergence herbicidal rating TRZAWR ([5]; rate 0.1250 kg/ha): 1.0
Preemergence herbicidal rating TRZAWR ([5]; rate 0.2500 kg/ha): 3.0
Preemergence herbicidal rating CASOB (CASOB (Sicklepod); rate 0.0156 kg/ha): 0.0
Preemergence herbicidal rating CASOB (CASOB (Sicklepod); rate 0.0313 kg/ha): 0.0
Preemergence herbicidal rating CASOB (CASOB (Sicklepod); rate 0.0625 kg/ha): 0.0
Preemergence herbicidal rating CASOB (CASOB (Sicklepod); rate 0.1250 kg/ha): 4.5
Preemergence herbicidal rating CASOB (CASOB (Sicklepod); rate 0.2500 kg/ha): 6.0
Preemergence herbicidal rating CASOB (CASOB (Sicklepod); rate 0.5000 kg/ha): 9.0
Preemergence herbicidal rating ECHCG (ECHCG (Barnyardgrass) [6]; rate 0.0156 kg/ha): 0.0
Preemergence herbicidal rating ECHCG (ECHCG (Barnyardgrass) [6]; rate 0.0313 kg/ha): 0.0
Preemergence herbicidal rating ECHCG (ECHCG (Barnyardgrass) [6]; rate 0.0625 kg/ha): 0.0
Preemergence herbicidal rating ECHCG (ECHCG (Barnyardgrass) [6]; rate 0.1250 kg/ha): 2.0
Preemergence herbicidal rating ECHCG (ECHCG (Barnyardgrass) [6]; rate 0.2500 kg/ha): 5.0
Preemergence herbicidal rating ECHCG (ECHCG (Barnyardgrass) [6]; rate 0.5000 kg/ha): 9.0
Postemergence herbicidal rating IPOHE ([7]; Rate 0.0158 kg/ha): 9.0
Postemergence herbicidal rating IPOHE ([7]; Rate 0.0315 kg/ha): 9.0
Postemergence herbicidal rating IPOHE ([7]; Rate 0.0630 kg/ha): 9.0
Preemergence herbicidal rating ZEAMX (ZEAMX (Corn, Field) [8]; rate 0.0156 kg/ha): 0.0
Preemergence herbicidal rating ZEAMX (ZEAMX (Corn, Field) [8]; rate 0.0313 kg/ha): 1.0
Preemergence herbicidal rating ZEAMX (ZEAMX (Corn, Field) [8]; rate 0.0625 kg/ha): 1.0
Preemergence herbicidal rating ZEAMX (ZEAMX (Corn, Field) [8]; rate 0.1250 kg/ha): 2.0
Preemergence herbicidal rating ZEAMX (ZEAMX (Corn, Field) [8]; rate 0.2500 kg/ha): 4.0
Preemergence herbicidal rating ZEAMX (ZEAMX (Corn, Field) [8]; rate 0.5000 kg/ha): 3.0
Postemergence herbicidal rating ZEAMX (ZEAMX (Corn, Field) [9]; Rate 0.0158 kg/ha): 7.5
Postemergence herbicidal rating ZEAMX (ZEAMX (Corn, Field) [9]; Rate 0.0315 kg/ha): 8.0
Postemergence herbicidal rating ZEAMX (ZEAMX (Corn, Field) [9]; Rate 0.0630 kg/ha): 9.0
Postemergence herbicidal rating SETVI (SETVI (Foxtail, Green); Rate 0.0158 kg/ha): 9.0
Postemergence herbicidal rating SETVI (SETVI (Foxtail, Green); Rate 0.0315 kg/ha): 9.0
Postemergence herbicidal rating SETVI (SETVI (Foxtail, Green); Rate 0.0630 kg/ha): 9.0
Postemergence herbicidal rating CHEAL ([10]; Rate 0.0158 kg/ha): 9.0
Postemergence herbicidal rating CHEAL ([10]; Rate 0.0315 kg/ha): 9.0
Postemergence herbicidal rating CHEAL ([10]; Rate 0.0630 kg/ha): 9.0
Postemergence herbicidal rating ECHCG (ECHCG (Barnyardgrass) [11]; Rate 0.0158 kg/ha): 9.0
Postemergence herbicidal rating ECHCG (ECHCG (Barnyardgrass) [11]; Rate 0.0315 kg/ha): 9.0
Postemergence herbicidal rating ECHCG (ECHCG (Barnyardgrass) [11]; Rate 0.0630 kg/ha): 9.0
Postemergence herbicidal rating ABUTH (ABUTH (Velvetleaf) [12]; Rate 0.0158 kg/ha): 9.0
Postemergence herbicidal rating ABUTH (ABUTH (Velvetleaf) [12]; Rate 0.0315 kg/ha): 9.0
Postemergence herbicidal rating ABUTH (ABUTH (Velvetleaf) [12]; Rate 0.0630 kg/ha): 9.0
Postemergence herbicidal rating ORYSAT (ORYSAT (Rice, Tebonnet); Rate 0.0158 kg/ha): 3.0
Postemergence herbicidal rating ORYSAT (ORYSAT (Rice, Tebonnet); Rate 0.0315 kg/ha): 3.0
Postemergence herbicidal rating ORYSAT (ORYSAT (Rice, Tebonnet); Rate 0.0630 kg/ha): 6.5
